We go through five compounds from patent publication US7723326B2, “Heterocyclic amide derivatives as RXR agonists for the treatment of dyslipidemia, hypercholesterolemia and diabetes” (Janssen Pharmaceutica N.V., priority 2005, dated 2010).

Test [1] has as its system ABCA1 mRNA in THP-1 cells. In words: ABCA1 bDNA assay (ABCA1 mRNA induction). The settings on record: Homo sapiens; for EC50: ABCA1 mRNA induction, usually 18-24 hrs. Type of test: cell-based. The procedure: THP-1 cells, a human monocytic cell line, were obtained from ATCC and maintained in RPMI (Gibco) supplemented with 10% fetal bovine serum (Gibco), 2mM L-glutamine and 1% antibiotic-antimycotic in 5% CO2 at 37° C. For ABCA1 mRNA induction assays, the cells were pelleted and resuspended in RPMI supplemented with 0.5% charcoal treated serum (Hyclone), 2 mM glutamine and 1% antibiotic-antimycotic. The cells were plated at a density of 40,000 cells/90 μl and incubated as above for at least 4 hours before the initiation of treatments. Compounds were prepared as 10 mM stocks in DMSO. For treatments, the compounds were diluted in medium and 10 μl of 10× stocks were added to the cells at a final concentration 0.1% DMSO. The cells were incubated for the desired amount of time (usually 18-24 hrs) and then lyzed with 50 μl of Quantigene HV bDNA lysis buffer which also contained the ABCA1 bDNA probes (probe sequences shown below): […]

Test [2] deals with T1, RXR ligand binding domain (accession number X52773) fused with the DNA binding domain of yeast GAL4 (Homo sapiens, UniProt P19793).
T1 construct: expressed in transfected cells; host or cells: HEK293
T1 sequence (P19793 227-458 limits assumed): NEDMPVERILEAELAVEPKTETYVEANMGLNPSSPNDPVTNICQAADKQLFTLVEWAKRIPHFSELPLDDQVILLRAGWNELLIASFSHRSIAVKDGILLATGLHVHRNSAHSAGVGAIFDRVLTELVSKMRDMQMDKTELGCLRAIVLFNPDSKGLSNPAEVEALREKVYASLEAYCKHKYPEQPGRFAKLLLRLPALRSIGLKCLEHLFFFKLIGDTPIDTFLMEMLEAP
In words: RXR co-transfection assay (GAL4-LBD luciferase reporter in HEK293 cells). The test is classed as cell-based. The settings on record: 16-18 hours. On the procedure: The nucleic acid sequence from 676-1464bp (accession number X52773) encoding the ligand binding domains was subcloned into the pM vector (BD Biosciences Clontech, Palo Alto, Calif.) and were fused with the DNA binding domain of yeast GAL4. HEK293 cells were cultured in DMEM/F12 medium supplemented with 10% FBS and 1% 1-glutamine (growth medium). Cells were seeded at a density of 5-10×10^6 cells in 50 ml of growth medium and left overnight, The medium was removed and the cells were washed with 15 ml of OptiMEM serum free medium (Invitrogen Corp). The cells were transfected using OptiMEM serum free medium and DMRIE transfection reagent (Invitrogen Corp). Approximately 10-30 ng of DNA for the different receptors and 5-10 ng of the luciferase reporter (1:1 ratio for RAR and 4:1 ratio for RXR of receptor DNA:reporter DNA) were gently mixed with 51 μl of DMRIE reagent in a total volume of 17 ml of OptiMEM medium. Eighteen hours after transfection, the cells were washed once with growth medium and then incubated for 6 hrs in 30 ml of growth medium. The cells were then trypsinized, and reseeded at a density of 50,000 per well in 96 well plates and left overnight. The medium was replaced with 90 μl of medium containing DMEM/F12 supplemented with 0.5% charcoal-treated FBS (HyClone; Logan, Utah) and 1% glutamine. Compounds or vehicle were added in 10 μl of 10× concentration of compound or vehicle (0.1% dimethyl sulfoxide). The cells were treated for 16-18 hours, lysed and assayed for luciferase activity using the Steady Gio luciferase assay kit (Promega, Madison, Wis.).
On the technique in general: A reporter such as luciferase makes a cellular process visible.

The structures appear in SMILES notation.

Usually EC50 stands for the midpoint of the concentration-response curve. Higher therefore signals weaker potency. In the case of `CCN1C(=O)C(C)(C)Oc2cc(C)c(-c3cc(CCC(=O)O)ccc3OC(F)(F)F)cc21` [Compound 12, 3-[3-(4-Ethyl-2,2,7-trimethyl-3-oxo-3,4-dihydro-2H-benzo[1,4]oxazin-6-yl)-4-trifluoromethoxy-phenyl]-propionic acid], the EC50 was over 2000 nM in test [1] and 709 nM in test [2].
With `CCN1C(=O)C(C)(C)Oc2cc(C)c(-c3cc(/C(C)=C/C(=O)O)ccc3OC(F)(F)F)cc21` [Compound 11, 3-[3-(4-Ethyl-2,2,7-trimethyl-3-oxo-3,4-dihydro-2H-benzo[1,4]oxazin-6-yl)-4-trifluoromethoxy-phenyl]-but-2-enoic acid], the Emax at 3 µM in test [1] (@3 μM, relative to MX-6054, read-out: ABCA1 % max MX-6054) is 75.5%. Moreover, the figures for the EC50 in test [1] and in test [2] were over 2000 nM and 61.2 nM, respectively.
For the compound `CCN1C(=O)C(C)(C)Oc2cc(C)c(-c3cc(/C=C/C(=O)O)ccc3OCC(F)(F)F)cc21` [Compound 2, 3-[3-(4-Ethyl-2,2,7-trimethyl-3-oxo-3,4-dihydro-2H-benzo[1,4]oxazin-6-yl)-4-(2,2,2-trifluoro-ethoxy)-phenyl]-acrylic acid], the EC50 in test [1] and in test [2] was over 2000 nM throughout.
As to `CCn1c(=O)c(=O)n(CC)c2cc(-c3cc([C@@H]4C[C@H]4C(=O)O)ccc3OC(F)(F)F)c(C)cc21` (racemic) [Compound 26, 2-[3-(1,4-Diethyl-7-methyl-2,3-dioxo-1,2,3,4-tetrahydro-quinoxalin-6-yl)-4-trifluoromethoxy-phenyl]-cyclopropanecarboxylic acid], the EC50 in test [1] and in test [2] was over 2000 nM throughout.
Turning to `Cc1cc2c(cc1-c1cc(/C=C/C(=O)O)ccc1OCC(F)(F)F)N(C)C(=O)C(C)(C)O2` [Compound 5, 3-[3-(2,2,4,7-Tetramethyl-3-oxo-3,4-dihydro-2H-benzo[1,4]oxazin-6-yl)-4-(2,2,2-trifluoro-ethoxy)-phenyl]-acrylic acid], the concentration giving a half-maximal response (EC50) in test [1] and in test [2] was over 2000 nM each time.
